Source: patent US20230285371A1 (THE SECOND XIANGYA HOSPITAL OF CENTRAL SOUTH UNIVERSITY, priority 2020, published 2023)
Values joined by “and” are separate entries in the source; they are usually repeats but may differ in a detail not shown here. Equal values may be shown once. Marks after values point to notes of the source that are not given here.

Tests used:
[1] = system: NOD mice (insulitis); settings: gavage once a day for 4 weeks from 8 weeks of age, nondiabetic mice, HE staining
[2] = system: Naive CD4+ T cells; experiment: Cytotoxicity to T cells: cell count after 48 hours; format: cell-based, C57BL/6J mice
[3] = system: Th1 cell marker genes (Tbet and IFNγ) and pro-inflammatory cytokines (IL-1β, IL-6 and TNF-α) in the pancreas; experiment: Gene expression in pancreas of NOD mice, RT-PCR; format: in vivo
From the text: (§1) From the age of 10 weeks, the mice were gavaged for 4 weeks, and injected with cyclophosphamide after the gavage for two weeks to induce the onset of the disease.

[4] = system: female NOD mice (type 1 diabetes induced by cyclophosphamide); experiment: Prevention of cyclophosphamide-induced type 1 diabetes in NOD mice; format: in vivo; settings: cyclophosphamide-induced T1D
From the text: (§2) I. Materials and Methods • 1. Mice: The most widely used spontaneous type 1 diabetes mouse model for the study of type 1 diabetes—NOD mice were selected. Since the incidence rate of spontaneous type 1 diabetes in female NOD mice is much higher than that in male mice, female NOD mice were used for experiments in the present invention. The female NOD mice of the present invention were purchased from Shanghai Model Organisms Center, Inc. • 2. Preparation of medicine: Carboxymethylcellulose (CMC) was used as the solvent. […] Injection of cyclophosphamide: 300 mg/kg body weight of cyclophosphamide was injected into NOD mice so as to rapidly induce the onset of type 1 diabetes. • 5. Measurement of blood sugar: About 1 mm of the tail tip of the mice was cut off, the first drop of blood was wiped off with gauze, then the second drop of blood flew out naturally, which was drawn with a blood sugar test strip, and the reading was recorded. It can be diagnosed type 1 diabetes when two consecutive blood sugar readings were both >250 mg/dl. • 6. […] After 4 weeks of gavage, each mouse was injected with cyclophosphamide to induce the onset of type 1 diabetes, and the incidence rate of type 1 diabetes in the mice was observed and counted.

[5] = system: differentiation of Th1 cells induced by IL-12 (Naive CD4+ T cells); experiment: In vitro inhibition assay: IL-12-induced Th1 differentiation, flow cytometry; format: cell-based, C57BL/6J mice; settings: for Th1 (%) Average / Th1 (%): IL-12, 48 hours; for Th1 (%) Average: average of 3 wells; for Th1 (%): individual parallel wells
Experimental: C57BL/6J mice were sacrificed, the spleen was taken and disrupted in PBS containing 2% fetal bovine serum (FBS). The cell suspension was filtered through a 70 μm nylon filter to remove tissue debris. The obtained cell suspension was centrifuged at 300 g for 10 min, and the cells were resuspended in PBS containing 2% fetal bovine serum (FBS) to maintain a cell concentration of 1×10^8 nucleated cells/mL. Naive CD4+ T cells were extracted with the EasySep™ Mouse Naive CD4+ T Cell Isolation Kit ([…] Technologies), and the extracted Naive CD4+ T cells were cultured in RPMI-1640 medium (Gibco) containing 10% fetal bovine serum (Gibco) and 1% penicillin/streptomycin (Gibco).
The cells were collected after 48 hours, and subjected to flow cytometry to detect the proportion of Th1 cells.

[6] = system: STAT4 and p-STAT4; experiment: STAT4 phosphorylation in IL-12-treated Naive CD4+ T cells, western blot; format: cell-based, C57BL/6J mice; settings: IL-12, 48 hours
Experimental: The cells were collected after 48 hours to extract proteins for western blot (WB) to detect the protein levels of STAT4 and p-STAT4.

[7] = system: CD4+ T cell subsets (Th1, Th2, Th17 and Treg) in the pancreas; experiment: CD4+ T cell subsets in pancreas of NOD mice, flow cytometry; format: in vivo
From the text: as §1

[8] = system: female NOD mice (spontaneous type 1 diabetes); experiment: Prevention of spontaneous type 1 diabetes in NOD mice; format: in vivo; settings: spontaneous T1D
From the text: as §2

[9] = Sorafenib group vs solvent group
[10] = relative to vehicle, individual mice
[11] = gavage 4 weeks, cyclophosphamide after 2 weeks, individual values

## Sorafenib
[1]
  insulitis compared with the CMC group: significantly improved
[2]; Sorafenib 1 μg/ml, 0 μg/ml control 9.47
  Th0 (×10^4) Average: 9.33 ×10^4
[2]; Sorafenib 2 μg/ml
  Th0 (×10^4) Average: 8.1 ×10^4
[2]; Sorafenib 4 μg/ml
  Th0 (×10^4) Average: 8 ×10^4
[3]; P<0.05 vs vehicle (1)
  IFNγ gene expression level in pancreas, Average: 0.27*
  Il-1β gene expression level in pancreas, Average: 0.37*
  TNFα gene expression level in pancreas, Average: 0.27*
[3]; P<0.1 vs vehicle (1.04)
  Tbet gene expression level in pancreas, Average: 0.44^+
[3]; [9]
  gene expression levels of Th1 cell marker genes (Tbet and IFNγ) and pro-inflammatory cytokines (IL-1β, IL-6 and TNF-α) in the pancreas: significantly reduced
[3]; [10]
  IFNγ gene expression level in pancreas: 0.16 and 0.07 and 0.58
  IL-6 gene expression level in pancreas: 0.64 and 0.12
  Il-1β gene expression level in pancreas: 0.48 and 0.18 and 0.46
  TNFα gene expression level in pancreas: 0.18 and 0.07 and 0.55
  Tbet gene expression level in pancreas: 0.27 and 0.2 and 0.86
[3]; vehicle 1
  IL-6 gene expression level in pancreas, Average: 0.38
[4]; 10 mg/kg gavage for 7 weeks, day 105
  Survival rate (%): 94.12%
[4]; 10 mg/kg gavage for 7 weeks, day 112
  Survival rate (%): 88.24%
[4]; 10 mg/kg gavage for 7 weeks, day 119
  Survival rate (%): 82.35%
[4]; 10 mg/kg gavage for 7 weeks, day 126
  Survival rate (%): 76.47%
[4]; 10 mg/kg gavage for 7 weeks, day 140, P<0.05 vs vehicle (35.71)
  Survival rate (%): 76.47* %
[4]; 10 mg/kg gavage once a day from 8 weeks of age for 7 weeks, cyclophosphamide 300 mg/kg after 4 weeks, n=17, day 0
  Survival rate (%): 100%
[4]; gavage stopped after 7 weeks
  preventive effect still existed after the gavage was stopped, lasted to: 20 weeks
[4]; more than half of the CMC group developed T1D
  incidence rate of type 1 diabetes: 24%
[5]; 0, 1, 2, 4 μg/ml, 48 hours
  effect on IL-12-induced Th1 differentiation: inhibit IL-12-induced Th1 differentiation in a dose-dependent manner
[5]; Sorafenib 1 μg/ml, 0 μg/ml control 85.27
  Th1 (%) Average: 80.43%
[5]; Sorafenib 1 μg/ml
  Th1 (%): 77.9% and 76% and 87.4%
[5]; Sorafenib 2 μg/ml, P<0.01 vs 0 μg/ml
  Th1 (%) Average: 68.53** %
[5]; Sorafenib 2 μg/ml
  Th1 (%): 67.8% and 68.5% and 69.3%
[5]; Sorafenib 4 μg/ml, P<0.001 vs 0 μg/ml
  Th1 (%) Average: 15.66*** %
[5]; Sorafenib 4 μg/ml
  Th1 (%): 24.9% and 12.9% and 9.17%
[6]
  effect on phosphorylation of STAT4: can inhibit the phosphorylation of STAT4
[7]; [9]
  proportion of Th1 cells in the pancreas: significantly reduced
  proportions of other T cell subsets in the pancreas: remained unchanged
[7]; gavage 4 weeks from 10 weeks of age, cyclophosphamide after 2 weeks, individual values
  Th1 (%) in pancreas: 6.63% and 3.58%
[7]; gavage 4 weeks, cyclophosphamide after 2 weeks, P<0.05 vs vehicle (21.2)
  Th1 (%) in pancreas, Average: 5.11* %
[7]; [11]
  Th2 (%) in pancreas: 9.75% and 12.9% and 7.91%
  Th17 (%) in pancreas: 3.28% and 0.68% and 1.19%
  Tregs (%) in pancreas: 4.6% and 4.31% and 2.25% and 4.37%
[7]; gavage 4 weeks, cyclophosphamide after 2 weeks, vehicle 1.31
  Th17 (%) in pancreas, Average: 1.72%
[7]; gavage 4 weeks, cyclophosphamide after 2 weeks, vehicle 4.345
  Tregs (%) in pancreas, Average: 3.88%
[7]; gavage 4 weeks, cyclophosphamide after 2 weeks, vehicle 9.45
  Th2 (%) in pancreas, Average: 10.19%
[8]; 10 mg/kg gavage once a day for 12 weeks, day 98
  Survival rate (%): 91.30%
[8]; 10 mg/kg gavage once a day for 12 weeks, day 119
  Survival rate (%): 73.91%
[8]; 10 mg/kg gavage once a day for 12 weeks, day 140
  Survival rate (%): 65.22%
[8]; 10 mg/kg gavage once a day for 12 weeks, day 154
  Survival rate (%): 60.87%
[8]; 10 mg/kg gavage once a day for 12 weeks, day 168
  Survival rate (%): 52.17%
[8]; 10 mg/kg gavage once a day for 12 weeks, day 224, P<0.1 vs vehicle (25)
  Survival rate (%): 52.17^+ %
[8]; 10 mg/kg gavage once a day from 8 weeks of age for 12 weeks, n=23, day 0
  Survival rate (%): 100%
[8]; at 32 weeks of age, CMC group 75%
  incidence rate of type 1 diabetes: 48%
